Assays:
SARS-CoV-2 nsp13 [1] = molecular target: T1, SARS-CoV-2 nsp13 (Severe acute respiratory syndrome coronavirus 2, UniProt P0DTD1); assay: SARS-CoV-2 nsp13 unwinding-associated activity (fluorescence, BSA-TCEP); type: biochemical; details: for IC50: SARS-CoV-2 nsp13-associated unwinding activity, from dose-response curves; for remaining activity at 30 µM: read-out: Percentage of enzymatic residual activity (unwinding)
SARS-CoV-2 nsp13 [2] = molecular target: T1, SARS-CoV-2 nsp13; assay: SARS-CoV-2 nsp13 ATPase-associated activity (Biomol Green, BSA-TCEP); type: biochemical; details: for IC50: SARS-CoV-2 nsp13-associated ATPase activity, from dose-response curves; for remaining activity at 30 µM: read-out: Percentage of enzymatic residual activity (ATPase)
[3] = read-out: Activity in enzyme assay IC50 Unwinding BSA-TCEP
[4] = read-out: Activity in enzyme assay IC50 ATPase BSA-TCEP
[5] = Activity in enzyme assay IC50 Unwinding BSA-TCEP
[6] = Activity in enzyme assay IC50 ATPase BSA-TCEP

COc1ccc(Cn2cc(/C=C/C(=O)/C=C(\O)C(=O)O)c3ccccc32)cc1 [5a, (2Z,5E)-2-hydroxy-6-(1-(4-methoxybenzyl)-1H-indol-3-yl)-4-oxohexa-2,5-dienoic acid]
IC50 (SARS-CoV-2 nsp13 [1]; [3]): 10.5 ± 0.81 µM | IC50 (SARS-CoV-2 nsp13 [2]; [4]): 19.9 ± 0.73 µM

Cc1ccc(Cn2cc(/C=C/C(=O)/C=C(\O)C(=O)O)c3ccccc32)cc1 [5b]
IC50 (SARS-CoV-2 nsp13 [1]; [3]): 13.6 ± 1.96 µM | IC50 (SARS-CoV-2 nsp13 [2]; [4]): 3.83 ± 0.45 µM

O=C(/C=C(\O)C(=O)O)/C=C/c1cn(Cc2ccc(F)cc2)c2ccccc12 [5d, (2Z,5E)-6-(1-(4-fluorobenzyl)-1H-indol-3-yl)-2-hydroxy-4-oxohexa-2,5-dienoic acid]
IC50 (SARS-CoV-2 nsp13 [1]; [3]): 7.63 ± 2.48 µM | IC50 (SARS-CoV-2 nsp13 [2]; [4]): 9.91 ± 0.5 µM

O=C(/C=C(\O)C(=O)O)/C=C/c1cn(S(=O)(=O)c2ccccc2)c2ccccc12 [5f]
IC50 (SARS-CoV-2 nsp13 [1]; [3]): 7.54 ± 0.76 µM | IC50 (SARS-CoV-2 nsp13 [2]; [4]): 5.36 ± 0.74 µM

O=C(/C=C(\O)C(=O)O)/C=C/c1cn(Cc2ccc(O)cc2)c2ccccc12 [5h, (2Z,5E)-2-hydroxy-6-(1-(4-hydroxybenzyl)-1H-indol-3-yl)-4-oxohexa-2,5-dienoic acid]
IC50 (SARS-CoV-2 nsp13 [1]; [3]): 2.77 ± 0.42 µM | IC50 (SARS-CoV-2 nsp13 [2]; [4]): 9.1 ± 3.4 µM

CCOC(=O)/C(O)=C/C(=O)/C=C/c1cn(Cc2ccc(OC)cc2)c2ccccc12 [6a, Ethyl (2Z,5E)-2-hydroxy-6-(1-(4-methoxybenzyl)-1H-indol-3-yl)-4-oxohexa-2,5-dienoate]
IC50 (SARS-CoV-2 nsp13 [1]; [3]): 6.65 ± 1.2 µM | IC50 (SARS-CoV-2 nsp13 [2]; [4]): 2.21 ± 0.26 µM

CCOC(=O)/C(O)=C/C(=O)/C=C/c1cn(Cc2ccc(C)cc2)c2ccccc12 [6b]
IC50 (SARS-CoV-2 nsp13 [1]; [3]): 7.34 ± 1.81 µM | IC50 (SARS-CoV-2 nsp13 [2]; [4]): 2.88 ± 0.59 µM

CCOC(=O)/C(O)=C/C(=O)/C=C/c1cn(Cc2ccc(C(C)C)cc2)c2ccccc12 [6c]
IC50 (SARS-CoV-2 nsp13 [1]; [3]): 5.81 ± 0.47 µM | IC50 (SARS-CoV-2 nsp13 [2]; [4]): 5.8 ± 0.12 µM

CCOC(=O)/C(O)=C/C(=O)/C=C/c1cn(Cc2ccc(F)cc2)c2ccccc12 [6d, Ethyl (2Z,5E)-6-(1-(4-fluorobenzyl)-1H-indol-3-yl)-2-hydroxy-4-oxohexa-2,5-dienoate]
IC50 (SARS-CoV-2 nsp13 [1]; [3]): 3.64 ± 0.11 µM | IC50 (SARS-CoV-2 nsp13 [2]; [4]): 3.22 ± 0.14 µM

CCOC(=O)/C(O)=C/C(=O)/C=C/c1cn(S(=O)(=O)c2ccccc2)c2ccccc12 [6f]
IC50 (SARS-CoV-2 nsp13 [1]; [3]): 11 ± 0.37 µM | IC50 (SARS-CoV-2 nsp13 [2]; [4]): 7.07 ± 0.74 µM

CCOC(=O)/C(O)=C/C(=O)/C=C/c1cn(Cc2ccc(C#N)cc2)c2ccccc12 [6g, Ethyl (2Z,5E)-6-(1-(4-cyanobenzyl)-1H-indol-3-yl)-2-hydroxy-4-oxohexa-2,5-dienoate]
IC50 (SARS-CoV-2 nsp13 [1]; [3]): 6.76 ± 1.18 µM | IC50 (SARS-CoV-2 nsp13 [2]; [4]): 6.24 ± 0.24 µM

CCOC(=O)/C(O)=C/C(=O)/C=C/c1cn(Cc2ccc(O)cc2)c2ccccc12 [6h, Ethyl (2Z,5E)-2-hydroxy-6-(1-(4-hydroxybenzyl)-1H-indol-3-yl)-4-oxohexa-2,5-dienoate]
IC50 (SARS-CoV-2 nsp13 [1]; [3]): 15.4 ± 1.47 µM | IC50 (SARS-CoV-2 nsp13 [2]; [4]): 3.7 ± 0.74 µM

CCOC(=O)/C(O)=C/C(=O)/C=C/c1cn(Cc2ccc(F)cc2)c2ccc(Cl)cc12 [6i, Ethyl (2Z,5E)-6-(5-chloro-1-(4-fluorobenzyl)-1H-indol-3-yl)-2-hydroxy-4-oxohexa-2,5-dienoate]
IC50 (SARS-CoV-2 nsp13 [1]; [3]): 5.22 ± 0.44 µM | IC50 (SARS-CoV-2 nsp13 [2]; [4]): 3.92 ± 0.96 µM

COc1ccc(Cn2cc(C(=O)/C=C(\O)C(=O)O)c3ccccc32)cc1 [7a]
IC50 (SARS-CoV-2 nsp13 [1]; [5]): > 30 µM | remaining activity at 30 µM (SARS-CoV-2 nsp13 [1]): 50.4% | IC50 (SARS-CoV-2 nsp13 [2]; [6]): > 30 µM | remaining activity at 30 µM (SARS-CoV-2 nsp13 [2]): 73.4%

Cc1ccc(Cn2cc(C(=O)/C=C(\O)C(=O)O)c3ccccc32)cc1 [7b]
IC50 (SARS-CoV-2 nsp13 [1]; [5]): 20.6 ± 3.22 µM | IC50 (SARS-CoV-2 nsp13 [2]; [6]): 8.33 ± 0.45 µM

CC(C)c1ccc(Cn2cc(C(=O)/C=C(\O)C(=O)O)c3ccccc32)cc1 [7c]
IC50 (SARS-CoV-2 nsp13 [1]; [5]): 14.1 ± 0.48 µM | IC50 (SARS-CoV-2 nsp13 [2]; [6]): 13 ± 1.08 µM

O=C(O)/C(O)=C/C(=O)c1cn(Cc2ccc(F)cc2)c2ccccc12 [7d, (Z)-4-(1-(4-fluorobenzyl)-1H-indol-3-yl)-2-hydroxy-4-oxobut-2-enoic acid]
IC50 (SARS-CoV-2 nsp13 [1]; [5]): > 30 µM | remaining activity at 30 µM (SARS-CoV-2 nsp13 [1]): 50% | IC50 (SARS-CoV-2 nsp13 [2]; [6]): > 30 µM | remaining activity at 30 µM (SARS-CoV-2 nsp13 [2]): 70%

O=C(O)/C(O)=C/C(=O)c1cn(Cc2ccc(OC(F)(F)F)cc2)c2ccccc12 [7e]
IC50 (SARS-CoV-2 nsp13 [1]; [5]): 22.2 ± 1.37 µM | IC50 (SARS-CoV-2 nsp13 [2]; [6]): 20.3 µM

O=C(O)/C(O)=C/C(=O)c1cn(Cc2ccccc2)c2ccccc12 [7j, (Z)-4-(1-benzyl-1H-indol-3-yl)-2-hydroxy-4-oxobut-2-enoic acid]
IC50 (SARS-CoV-2 nsp13 [1]; [5]): 30 ± 1.5 µM | IC50 (SARS-CoV-2 nsp13 [2]; [6]): 10.3 ± 1.75 µM

CCOC(=O)/C(O)=C/C(=O)c1cn(Cc2ccc(OC)cc2)c2ccccc12 [8a]
IC50 (SARS-CoV-2 nsp13 [1]; [5]): 13.1 ± 1.78 µM | IC50 (SARS-CoV-2 nsp13 [2]; [6]): 8.06 ± 1.78 µM

CCOC(=O)/C(O)=C/C(=O)c1cn(Cc2ccc(C)cc2)c2ccccc12 [8b]
IC50 (SARS-CoV-2 nsp13 [1]; [5]): 13.2 ± 2.76 µM | IC50 (SARS-CoV-2 nsp13 [2]; [6]): 7.01 ± 0.05 µM

CCOC(=O)/C(O)=C/C(=O)c1cn(Cc2ccc(C(C)C)cc2)c2ccccc12 [8c]
IC50 (SARS-CoV-2 nsp13 [1]; [5]): 9.66 ± 2.89 µM | IC50 (SARS-CoV-2 nsp13 [2]; [6]): 9.64 ± 2.27 µM

CCOC(=O)/C(O)=C/C(=O)c1cn(Cc2ccc(OC(F)(F)F)cc2)c2ccccc12 [8e]
IC50 (SARS-CoV-2 nsp13 [1]; [5]): 11.3 ± 0.65 µM | IC50 (SARS-CoV-2 nsp13 [2]; [6]): 2.29 ± 0.02 µM

CCOC(=O)/C(O)=C/C(=O)c1cn(Cc2ccccc2)c2ccccc12 [8j, Ethyl (Z)-4-(1-benzyl-1H-indol-3-yl)-2-hydroxy-4-oxobut-2-enoate]
IC50 (SARS-CoV-2 nsp13 [1]; [5]): 26 ± 0.89 µM | IC50 (SARS-CoV-2 nsp13 [2]; [6]): 14.5 ± 1.49 µM

C/C=C/Cn1cc(/C=C/C(=O)/C=C(\O)C(=O)O)c2ccccc21 [9a, (2Z,5E)-6-(1-((E)-but-2-en-1-yl)-1H-indol-3-yl)-2-hydroxy-4-oxohexa-2,5-dienoic acid]
IC50 (SARS-CoV-2 nsp13 [1]; [3]): 19.4 ± 3.7 µM | IC50 (SARS-CoV-2 nsp13 [2]; [4]): > 30 µM | remaining activity at 30 µM (SARS-CoV-2 nsp13 [2]; measured at 30 µM): 70%

C=C(C)Cn1cc(/C=C/C(=O)/C=C(\O)C(=O)O)c2ccccc21 [9b, (2Z,5E)-2-hydroxy-6-(1-(2-methylallyl)-1H-indol-3-yl)-4-oxohexa-2,5-dienoic acid]
IC50 (SARS-CoV-2 nsp13 [1]; [3]): > 30 µM | remaining activity at 30 µM (SARS-CoV-2 nsp13 [1]; measured at 30 µM): 72% | IC50 (SARS-CoV-2 nsp13 [2]; [4]): > 30 µM | remaining activity at 30 µM (SARS-CoV-2 nsp13 [2]; measured at 30 µM): 68%

CCn1cc(/C=C/C(=O)/C=C(\O)C(=O)O)c2ccccc21 [9d]
IC50 (SARS-CoV-2 nsp13 [1]; [3]): 11.8 ± 4.03 µM | IC50 (SARS-CoV-2 nsp13 [2]; [4]): 8.32 ± 0.08 µM

CCCCn1cc(/C=C/C(=O)/C=C(\O)C(=O)O)c2ccccc21 [9e, (2Z,5E)-6-(1-butyl-1H-indol-3-yl)-2-hydroxy-4-oxohexa-2,5-dienoic acid]
remaining activity at 30 µM (SARS-CoV-2 nsp13 [1]; measured at 30 µM): 41% | IC50 (SARS-CoV-2 nsp13 [2]; [4]): > 30 µM | remaining activity at 30 µM (SARS-CoV-2 nsp13 [2]; measured at 30 µM): 100%

CC(C)CCn1cc(/C=C/C(=O)/C=C(\O)C(=O)O)c2ccccc21 [9f, (2Z,5E)-2-hydroxy-6-(1-isopentyl-1H-indol-3-yl)-4-oxohexa-2,5-dienoic acid]
IC50 (SARS-CoV-2 nsp13 [1]; [3]): 15.9 ± 0.59 µM | IC50 (SARS-CoV-2 nsp13 [2]; [4]): 23.1 ± 1.41 µM

C/C=C/Cn1cc(/C=C/C(=O)/C=C(\O)C(=O)OCC)c2ccccc21 [10a, Ethyl (2Z,5E)-6-(1-((E)-but-2-en-1-yl)-1H-indol-3-yl)-2-hydroxy-4-oxohexa-2,5-dienoate]
IC50 (SARS-CoV-2 nsp13 [1]; [3]): 13.2 ± 1.86 µM | IC50 (SARS-CoV-2 nsp13 [2]; [4]): 8.79 ± 0.69 µM

C=C(C)Cn1cc(/C=C/C(=O)/C=C(\O)C(=O)OCC)c2ccccc21 [10b, Ethyl (2Z,5E)-2-hydroxy-6-(1-(2-methylallyl)-1H-indol-3-yl)-4-oxohexa-2,5-dienoate]
IC50 (SARS-CoV-2 nsp13 [1]; [3]): 21.5 ± 0.23 µM | IC50 (SARS-CoV-2 nsp13 [2]; [4]): 7.26 ± 0.65 µM

CCOC(=O)/C(O)=C/C(=O)/C=C/c1cn(C=C(C)C)c2ccccc12 [10c, Ethyl (2Z,5E)-2-hydroxy-6-(1-(2-methylprop-1-en-1-yl)-1H-indol-3-yl)-4-oxohexa-2,5-dienoate]
IC50 (SARS-CoV-2 nsp13 [1]; [3]): 19.3 ± 0.76 µM | IC50 (SARS-CoV-2 nsp13 [2]; [4]): 4.93 ± 1.4 µM

CCOC(=O)/C(O)=C/C(=O)/C=C/c1cn(CC)c2ccccc12 [10d]
IC50 (SARS-CoV-2 nsp13 [1]; [3]): 11.8 ± 4.03 µM | IC50 (SARS-CoV-2 nsp13 [2]; [4]): 18.5 ± 0.65 µM

CCCCn1cc(/C=C/C(=O)/C=C(\O)C(=O)OCC)c2ccccc21 [10e, Ethyl (2Z,5E)-6-(1-butyl-1H-indol-3-yl)-2-hydroxy-4-oxohexa-2,5-dienoate]
IC50 (SARS-CoV-2 nsp13 [1]; [3]): 14.8 ± 1.18 µM | IC50 (SARS-CoV-2 nsp13 [2]; [4]): 5.72 ± 1.63 µM

CCOC(=O)/C(O)=C/C(=O)/C=C/c1cn(CCC(C)C)c2ccccc12 [10f, Ethyl (2Z,5E)-2-hydroxy-6-(1-isopentyl-1H-indol-3-yl)-4-oxohexa-2,5-dienoate]
IC50 (SARS-CoV-2 nsp13 [1]; [3]): 13.5 ± 0.25 µM | IC50 (SARS-CoV-2 nsp13 [2]; [4]): 6.27 ± 0.2 µM
